Measured values from article PMC10492809, “A Bischler-Napieralski and homo-Mannich sequence enables diversified syntheses of sarpagine alkaloids and analogues” (Nature Communications, 2023).
Where “and” joins values, the source holds several entries; their conditions need not be identical. Equal values may be shown once. Read-outs that look alike come from different tables or passages of the source.

Experiments:
Type in all cases: cell-based
[1] = system: A375; assay: MTT cell viability assay, A375
Protocol: (§1) All cell lines were cultured at 37 °C with 5% CO2 in a humidified incubator. HeLa cells were grown in MEM (Gibco) supplemented with 10% fetal bovine serum (FBS, Hyclone) and 1% penicillin/streptomycin (Gibco). MIA PaCa-2, MDA-MB-231, A549, MCF-7, A375 and BEAS-2B cells were grown in DMEM (Gibco) supplemented with 10% FBS and 1% penicillin/streptomycin. CT26, and HCT116 cells were grown in RPMI-1640 supplemented with 10% FBS and 1% penicillin/streptomycin. All cell lines were purchased from the National Collection of Authenticated Cell Cultures (China).
(§2) The antiproliferative activities of the prepared compounds against tested cell lines were evaluated using a standard (MTT)-based colorimetric assay. Cells were plated at a density of 3000 cells/well in 96-well plates and allowed to adhere overnight. Then cells were treated with varying concentrations of synthesized compounds for 72 h. At the end of treatment, 20 μL of thiazolyl blue tetrazolium bromide (MTT) solution (5 mg/mL) was added to each well. Cells were incubated for an additional 4 h at 37 °C and then the medium was removed and replaced with 200 μL of DMSO. The absorbance (OD490) was read on a microplate reader (SpectraMax i3x, Molecular Devices, US). In all experiments, three replicate wells were used for each drug concentration. Each assay was performed at least three times. The IC50 values were calculated by GraphPad Prism 9, which were the mean values derived from three independent experiments.

[2] = system: cancer cell lines; assay: In vitro cancer cell assays (antiproliferation, cell line not given); details: improvement over vellosimine (4)
Protocol: as §1, §2

[3] = system: CT26; assay: MTT cell viability assay, CT26
Protocol: as §1, §2

[4] = system: MDA-MB-231; assay: MTT cell viability assay, MDA-MB-231
Protocol: as §1, §2

[5] = system: Hela; assay: MTT cell viability assay, Hela
Protocol: as §1, §2

[6] = system: MDA-MB-231 cells; assay: Measurement of glutathione levels
Protocol: Cells were plated at a density of 2 × 10^5 cells/well in 6-well plates and allowed to adhere overnight. After being treated as indicated, cells were collected and prepared for measurement of total intracellular glutathione (GSH + GSSG) using the assay kit (Beyotime, S0052) according to the manufacturer’s instructions. […]

[7] = system: MCF-7; assay: MTT cell viability assay, MCF-7
Protocol: as §1, §2

[8] = system: MDA-MB-231 cells; assay: Cell death manner assay (MTT, co-incubation with cell death inhibitors)
Protocol: [The source words this procedure for another cell line and reports this cell line under the same test.] To investigate the mechanism of 15ai in cancer cell proliferation inhibition, the manners of cell death were analyzed. The cell apoptosis inhibitor Z-VAD-FMK (Z-VAD), cell necrosis inhibitor Necrostatin-1 (Necro-1), ferroptosis inhibitor Ferrostatin-1 (Fer-1), and ROS inhibitor N-acetylcysteine (NAC) were purchased and stored at −20 °C. A375 cells were seeded with a density of 5000 cells/100 µL/well into 96 well plates. After 12 h, 15ai was added at different concentrations. Following that 10 µM Z-VAD, 10 µM Nerco-1, 10 µM Fer-1, and 5 mM NAC were added and co-incubated with 15ai, respectively, for 72 h. Then, 20 µL MTT solution (5 mg/mL) was added and incubated at 37 °C for an additional 4 h. Then, the supernatant was discarded, and 200 μL DMSO was added to dissolve the precipitate. After 15 min, the absorbance (OD490) was read on a microplate reader (SpectraMax i3x, Austria). In all experiments, three replicate wells were used for each drug concentration. Each assay was performed at least three times.

[9] = system: SLC7A11; assay: Western blotting, SLC7A11 protein expression; details: 15ai 0, 2, 4 and 8 μM, 24 h
Protocol: Cells on 6-well plates were rinsed twice with cold PBS and lysed in RIPA lysis buffer (50 mM Tris (pH 7.4), 150 mM NaCl, 1% Triton X-100, 1% deoxycholicphenyl methylsulfonyl fluoride, 5.0 mM sodium pyrophosphate, […] leupeptin, 0.1 mM phenylmethylsulfonyl fluoride, and1 mM DTT) containing a protease inhibitor (PMSF) mixture at 1:100 dilution on ice for 30 min. The insoluble components of cell lysates were removed by centrifugation (4 °C, 12000 × g, 10 min), and protein concentrations were measured using a Pierce BCA protein assay kit. Proteins were separated by sodium dodecyl sulfate-polyacrylamide gel electrophoresis (SDS-PAGE) and transferred onto polyvinylidene difluoride (PVDF) membranes. Membranes were blocked using 5% skim milk in TBST and then incubated with diluted indicated primary antibodies: anti-GPX4 (1:1000 dilution, Proteintech, Cat No: 30388-1-AP), anti-SLC7A11 (1:1000 dilution, ABclonal, Cat No: A13685), anti-GAPDH (1:1000 dilution, Wanlei, Cat No: WL01114) at 4 °C with gentle shaking overnight. After washing five times (5 min each) with TBST, membranes were incubated with the HRP conjugated goat anti rabbit IgG (H + L) (1:5000 dilution, Wanlei, Cat No: WLA023) for 1 h at rt. Immunoreactive bands were visualized using an ECL detection kit (Wanlei, Cat No: WLA006) following the manufacturer’s instruction on the ChemiDoc system (BioRad, Shanghai, China).

C=C=C1CN2[C@H]3C[C@H]1[C@H](C=O)[C@@H]2Cc1c3n(S(=O)(=O)c2ccc(C)cc2)c2ccc(Cl)cc12 [Compound 15ai]
IC50 ([1]; Homo sapiens, A-375, 72 h, MTT, 72 h, mean of at least three independent experiments, read-out: IC50 A375): 2.64 µM | IC50 ([1]; Homo sapiens, A-375, source data sheet, single values of three experiments, read-out: MTT IC50 A375): 2.78 µM | IC50 ([1]; source data sheet, single values of three experiments, read-out: MTT IC50 A375): 1.96 µM and 3.18 µM | anticancer activity compared to vellosimine (4) [2]: tenfold-improved | IC50 ([3]; Mus musculus, CT26, 72 h, MTT, 72 h, mean of at least three independent experiments, read-out: IC50 CT26): 5.98 µM | IC50 ([3]; Mus musculus, CT26, source data sheet, single values of three experiments, read-out: MTT IC50 CT-26): 7.11 µM | IC50 ([3]; source data sheet, single values of three experiments, read-out: MTT IC50 CT-26): 5.83 µM and 4.99 µM | IC50 ([4]; Homo sapiens, MDA-MB-231, 72 h, MTT, 72 h, mean of at least three independent experiments, read-out: IC50 MDA-MB-231): 2.03 µM | IC50 ([4]; Homo sapiens, MDA-MB-231, source data sheet, single values of three experiments, read-out: MTT IC50 MDA-MB-231): 1.68 µM | IC50 ([4]; source data sheet, single values of three experiments, read-out: MTT IC50 MDA-MB-231): 2.11 µM and 2.31 µM | IC50 ([5]; Homo sapiens, HeLa, 72 h, MTT, 72 h, mean of at least three independent experiments, read-out: IC50 Hela): 2.95 µM | IC50 ([5]; Homo sapiens, HeLa, source data sheet, single values of three experiments, read-out: MTT IC50 Hela): 3.02 µM | IC50 ([5]; source data sheet, single values of three experiments, read-out: MTT IC50 Hela): 2.02 µM and 3.81 µM | GSH levels (% of control) ([6]; 15ai 4 μM per Fig. 4, single replicates): 52.357 % of control and 54.35 % of control | GSH levels (% of control) ([6]; (15ai 2 μM per Fig. 4), single replicates): 80.51 % of control and 78.85 % of control | GSH levels (% of control) ([6]; (15ai 8 μM per Fig. 4), single replicates): 27.587 % of control and 22.5 % of control | GSH level (% of control) at 2 µM ([6]; Homo sapiens, MDA-MB-231, column 2 (15ai 2 μM per Fig. 4), single replicates): 84.6% | GSH level (% of control) at 4 µM ([6]; Homo sapiens, MDA-MB-231, column 4 (15ai 4 μM per Fig. 4), single replicates): 61.6% | GSH level (% of control) at 8 µM ([6]; Homo sapiens, MDA-MB-231, column 8 (15ai 8 μM per Fig. 4), single replicates): 23.2% | GSH levels ([6]; result in words, 15ai 0, 2, 4 and 8 μM): dose-dependently decreased | IC50 ([7]; Homo sapiens, MCF7, 72 h, MTT, 72 h, mean of at least three independent experiments, read-out: IC50 MCF-7): 13.9 µM | IC50 ([7]; Homo sapiens, MCF7, source data sheet, single values of three experiments, read-out: MTT IC50 MCF-7): 16 µM | IC50 ([7]; source data sheet, single values of three experiments, read-out: MTT IC50 MCF-7): 12.8 µM and 12.9 µM | viability at 10 µM ([8]; Homo sapiens, MDA-MB-231, 72 h, read-out: Percentage of viability, Fer-1 / NAC experiment, 15ai 10 μM, Fer-1 10 μM, NAC 5 mM, 72 h, single replicates): 21.2% | reversal of 15ai-induced cell death by Z-VAD or Necro-1 ([8]; MDA-MB-231 cells, addition of apoptosis inhibitor Z-VAD-FMK or necroptosis inhibitor necrostatin-1): could not reverse cell death | rescue of cell viability by Fer-1 or NAC ([8]; co-existence of ferroptosis inhibitor Fer-1 or ROS inhibitor NAC): remarkably rescued cell viability | SLC7A11 level [9]: dose-dependently decreased
